Laboratory results as given in patent US9850283B2, “Macrocyclic inhibitors of the PD-1/PD-L1 and CD80(B7-1)/PD-L1 protein/protein interactions” (BRISTOL-MYERS SQUIBB COMPANY, priority 2013, dated 2017).
Read-outs that look alike come from different tables or passages of the source. Positions of bridges follow the written chain, without caps; N, C: chain ends. Non-standard residues stand in square brackets, D forms with d. Residues, ends and D or L forms follow the SMILES beside them. ξ: configuration not given here. Phe(3-OMe) = COc1cccc(C[C@H](N)C(=O)O)c1; Pro(4R-NH2) = N[C@H]1CN[C@H](C(=O)O)C1; Bta = N[C@@H](Cc1csc2ccccc12)C(=O)O; cisHyp = O=C(O)[C@@H]1C[C@H](O)CN1; Hyp = O=C(O)[C@@H]1C[C@@H](O)CN1; NMeF = CN[C@@H](Cc1ccccc1)C(=O)O; NMeNle = CCCC[C@H](NC)C(=O)O; hSer = N[C@@H](CCO)C(=O)O; NMeA = CN[C@@H](C)C(=O)O; Orn = NCCC[C@H](N)C(=O)O; Dab = NCC[C@H](N)C(=O)O; Dap = NC[C@H](N)C(=O)O; ξC = NC(CS)C(=O)O; Sar = CNCC(=O)O

Experiments:
[1] = biological target: T1, LK35.2-hPD-L1 cells / PE-labeled PD-1-Ig (Homo sapiens, UniProt Q9NZQ7); assay: LK35.2-hPD-L1 cell binding high-content screening assay; type: cell-based; details: cluster symbol, read-out: CBA IC50 cluster
T1 construct: expressed in transfected cells; host or cells: LK35.2 mouse B cell line
How it was run: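 Compound effect on PD-1/PD-L1 binding is measured by imaging cell-associated phycoerythrin signal. Human PD-1-Ig (PE on Ig tag, 1 nM final) is applied with compound to a murine B cell line overexpressing human PD-L1 for 1 h at 37 °C in serum-containing RPMI.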

[2] = biological target: T2, Human PD-L1/PD-1 (Homo sapiens, UniProt Q9NZQ7); assay: HTRF PD-1-Ig/PD-L1-His binding assay (human PD-L1); details: cluster symbol; read-out: HTRF IC50 cluster
T2 construct: made in house; host or cells: HEK293T
How it was run: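 Soluble Fc-fused PD-1 and His-tagged PD-L1 (truncated before the transmembrane region) were combined in dPBS with 0.1% (w/v) BSA and 0.05% (v/v) Tween-20. Binding was read by HTRF using europium cryptate anti-Ig antibody (1 nM final) and APC anti-His antibody (20 nM final).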

[3] = cell binding assay, cell line not given
[4] = cell line of CBA not given (LK35.2-hPD-L1 or 293T-hPD-L1)

T2 sequence (Q9NZQ7 with tags, fused parts or gaps): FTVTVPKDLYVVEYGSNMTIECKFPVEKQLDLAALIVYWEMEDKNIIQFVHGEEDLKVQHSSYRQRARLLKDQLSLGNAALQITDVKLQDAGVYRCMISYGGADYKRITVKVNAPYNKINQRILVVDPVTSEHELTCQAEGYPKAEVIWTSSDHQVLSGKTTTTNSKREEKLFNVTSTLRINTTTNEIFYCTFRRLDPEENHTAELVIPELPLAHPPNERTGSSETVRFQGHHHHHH
T1 sequence (Q9NZQ7 19-290): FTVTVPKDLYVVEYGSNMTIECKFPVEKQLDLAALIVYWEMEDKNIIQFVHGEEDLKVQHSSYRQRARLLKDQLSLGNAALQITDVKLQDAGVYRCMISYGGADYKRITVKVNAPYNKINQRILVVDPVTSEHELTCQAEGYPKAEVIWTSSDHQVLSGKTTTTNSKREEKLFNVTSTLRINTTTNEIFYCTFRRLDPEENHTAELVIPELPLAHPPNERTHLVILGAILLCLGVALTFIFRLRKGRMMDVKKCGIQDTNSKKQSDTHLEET

Row | SMILES | IC50 [1, 3] | IC50 [2] | IC50 [1, 4]
1 | CCCC[C@H]1C(=O)N(C)[C@@H](CCCC)C(=O)N[C@@H](CCCNC(=N)N)C(=O)NC(C(=O)NCC(N)=O)CSCC(=O)N[C@@H](Cc2ccc(O)cc2)C(=O)N(C)[C@@H](C)C(=O)N[C@@H](CC(N)=O)C(=O)N2CCC[C@H]2C(=O)N[C@@H](Cc2cnc[nH]2)C(=O)N[C@@H](CC(C)C)C(=O)N2C[C@H](O)C[C@H]2C(=O)N[C@@H](Cc2c[nH]c3ccccc23)C(=O)N[C@@H](CCO)C(=O)N[C@@H](Cc2c[nH]c3ccccc23)C(=O)N1C (stereo partly shown) [Example 9049] ({CH2CO}-Y[NMeA]NPHL[Hyp]W[hSer]W[NMeNle][NMeNle]R[ξC]G-NH2; thioether N-14) | 0.158 to 4.71 nM | 0.385 to 6.74 nM | 
2 | CCCC[C@H]1C(=O)N(C)[C@@H](CCCC)C(=O)N[C@@H](CN)C(=O)N[C@H](C(=O)NCC(N)=O)CSCC(=O)N[C@@H](Cc2ccc(O)cc2)C(=O)N(C)[C@@H](C)C(=O)N[C@@H](CC(N)=O)C(=O)N2CCC[C@H]2C(=O)N[C@@H](CN)C(=O)N[C@@H](CCC(=O)O)C(=O)N2C[C@H](O)C[C@H]2C(=O)N[C@@H](Cc2c[nH]c3ccccc23)C(=O)N[C@@H](CO)C(=O)N[C@@H](Cc2csc3ccccc23)C(=O)N1C [Example 1162] ({CH2CO}-Y[NMeA]NP[Dap]E[Hyp]WS[Bta][NMeNle][NMeNle][Dap]CG-NH2; thioether N-14) |  | 0.385 to 6.74 nM | 0.158 to 4.71 nM
3 | CCCC[C@H]1C(=O)N(C)CC(=O)N[C@@H](CC(=O)O)C(=O)N[C@@H](C(C)C)C(=O)N(C)[C@@H](Cc2ccccc2)C(=O)N2C[C@H](N)C[C@H]2C(=O)N2CCC[C@@H]2C(=O)N[C@@H](Cc2c[nH]c3ccccc23)C(=O)N[C@@H](Cc2ccc(O)cc2)C(=O)N[C@@H](CC(C)C)C(=O)N[C@H](C(=O)NCC(N)=O)CSCC(=O)N[C@@H](Cc2ccccc2)C(=O)N(C)[C@@H](Cc2ccccc2)C(=O)N1C [Example 3178] ({CH2CO}-F[NMeF][NMeNle][Sar]DV[NMeF][Pro(4R-NH2)][dP]WYLCG-NH2; thioether N-13) |  | 6.76 to 30.3 nM | 4.78 to 72.9 nM
4 | CCCC[C@H]1C(=O)N(C)[C@@H](CCCC)C(=O)N[C@@H](CO)C(=O)N[C@H](C(=O)NCC(N)=O)CSCC(=O)N[C@@H](Cc2ccc(O)cc2)C(=O)N(C)[C@@H](C)C(=O)N[C@@H](CC(N)=O)C(=O)N2CCC[C@H]2C(=O)N[C@@H](CO)C(=O)N[C@@H](CC(C)C)C(=O)N2C[C@H](O)C[C@H]2C(=O)N[C@@H](Cc2c[nH]c3ccccc23)C(=O)N[C@@H](CO)C(=O)N[C@@H](Cc2c[nH]c3ccccc23)C(=O)N1C [Example 5118] ({CH2CO}-Y[NMeA]NPSL[Hyp]WSW[NMeNle][NMeNle]SCG-NH2; thioether N-14) | 0.158 to 4.71 nM | 0.385 to 6.74 nM | 
5 | CCCC[C@H]1C(=O)N(C)CC(=O)N[C@@H](CC(=O)O)C(=O)N[C@@H](C(C)C)C(=O)N(C)[C@@H](Cc2ccccc2)C(=O)N[C@@H](CCC(=O)O)C(=O)N(C)[C@@H](CCC(=O)O)C(=O)N[C@@H](Cc2c[nH]c3ccccc23)C(=O)N[C@@H](Cc2ccc(O)cc2)C(=O)N[C@@H](CCC(=O)O)C(=O)N[C@H](C(=O)NCC(N)=O)CSCC(=O)N[C@@H](Cc2ccccc2)C(=O)N(C)[C@@H](Cc2ccccc2)C(=O)N1C [Example 3075] (HELM PEPTIDE1{[O=C(C[*:3])[*:2]].F.[meF].[CCCC[C@@H](C(=O)[*:2])N(C)[*:1]].[Sar].D.V.[meF].E.[meE].W.Y.E.C.G.[am]}$PEPTIDE1,PEPTIDE1,1:R3-14:R3$$$V2.0) |  | > 30.5 nM | > 74.3 nM
6 | CCCC[C@H]1C(=O)N(C)[C@@H](CCCC)C(=O)N[C@@H](CN)C(=O)N[C@H](C(=O)NCC(N)=O)CSCC(=O)N[C@@H](Cc2ccc(O)cc2)C(=O)N(C)[C@@H](C)C(=O)N[C@@H](CC(N)=O)C(=O)N2CCC[C@H]2C(=O)N[C@@H](CN)C(=O)N[C@@H](CC(C)C)C(=O)N2C[C@H](O)C[C@H]2C(=O)N[C@@H](Cc2c[nH]c3ccccc23)C(=O)N[C@@H](CCN)C(=O)N[C@@H](Cc2c[nH]c3ccccc23)C(=O)N1C [Example 5059] ({CH2CO}-Y[NMeA]NP[Dap]L[Hyp]W[Dab]W[NMeNle][NMeNle][Dap]CG-NH2; thioether N-14) | 4.78 to 72.9 nM | 0.385 to 6.74 nM | 
7 | CCCC[C@H]1C(=O)N(C)[C@@H](CCCC)C(=O)N[C@@H](CCCNC(=N)N)C(=O)N[C@H](C(=O)NCC(N)=O)CSCC(=O)N[C@@H](Cc2cccc(OC)c2)C(=O)N(C)[C@@H](C)C(=O)N[C@@H](CC(N)=O)C(=O)N2CCC[C@H]2C(=O)N[C@@H](Cc2cnc[nH]2)C(=O)N[C@@H](CC(C)C)C(=O)N(C)CC(=O)N[C@@H](Cc2c[nH]c3ccccc23)C(=O)N[C@@H](CO)C(=O)N[C@@H](Cc2c[nH]c3ccccc23)C(=O)N1C [Example 1098] ({CH2CO}-[Phe(3-OMe)][NMeA]NPHL[Sar]WSW[NMeNle][NMeNle]RCG-NH2; thioether N-14) |  | 6.76 to 30.3 nM | 4.78 to 72.9 nM
8 | CCCC[C@H]1C(=O)N(C)CC(=O)N[C@@H](CC(=O)O)C(=O)N[C@@H](C(C)C)C(=O)N(C)[C@@H](Cc2ccccc2)C(=O)N[C@@H](Cc2ccc(O)cc2)C(=O)N(C)CC(=O)N[C@@H](Cc2c[nH]c3ccccc23)C(=O)N[C@@H](Cc2ccc(O)cc2)C(=O)N[C@@H](CCN)C(=O)N[C@H](C(=O)NCC(N)=O)CSCC(=O)N[C@@H](Cc2ccccc2)C(=O)N(C)[C@@H](Cc2ccccc2)C(=O)N1C [Example 3162] (HELM PEPTIDE1{[O=C(C[*:3])[*:2]].F.[meF].[CCCC[C@@H](C(=O)[*:2])N(C)[*:1]].[Sar].D.V.[meF].Y.[Sar].W.Y.[Dab].C.G.[am]}$PEPTIDE1,PEPTIDE1,1:R3-14:R3$$$V2.0) |  | 6.76 to 30.3 nM | 4.78 to 72.9 nM
9 | CCCC[C@H]1C(=O)N(C)[C@@H](CCCC)C(=O)N[C@@H](CCCN)C(=O)N[C@H](C(=O)NCC(N)=O)CSCC(=O)N[C@@H](Cc2ccc(O)cc2)C(=O)N(C)[C@@H](C)C(=O)N[C@@H](CC(N)=O)C(=O)N2CCC[C@H]2C(=O)N[C@@H](Cc2cnc[nH]2)C(=O)N[C@@H](CC(C)C)C(=O)N2C[C@@H](O)C[C@H]2C(=O)N[C@@H](Cc2c[nH]c3ccccc23)C(=O)N[C@@H](CO)C(=O)N[C@@H](Cc2csc3ccccc23)C(=O)N1C [Example 1051] ({CH2CO}-Y[NMeA]NPHL[cisHyp]WS[Bta][NMeNle][NMeNle][Orn]CG-NH2; thioether N-14) |  | 6.76 to 30.3 nM | 0.158 to 4.71 nM
10 | CCCC[C@H]1C(=O)N(C)[C@@H](CCCC)C(=O)N[C@@H](CO)C(=O)NC(C(=O)NCC(N)=O)CSCC(=O)N[C@@H](Cc2ccc(O)cc2)C(=O)N(C)[C@@H](C)C(=O)N[C@@H](CC(N)=O)C(=O)N2CCC[C@H]2C(=O)N[C@@H](Cc2cnc[nH]2)C(=O)N[C@@H](CC(C)C)C(=O)N2C[C@H](O)C[C@H]2C(=O)N[C@@H](Cc2c[nH]c3ccccc23)C(=O)N[C@@H](CO)C(=O)N[C@@H](Cc2c[nH]c3ccccc23)C(=O)N1C (stereo partly shown) [Example 9029] | 0.158 to 4.71 nM | 6.76 to 30.3 nM | 
11 | CCCC[C@H]1C(=O)N(C)CC(=O)N[C@@H](CC(=O)O)C(=O)N[C@@H](C(C)C)C(=O)N(C)[C@@H](Cc2ccccc2)C(=O)N[C@@H](Cc2ccccc2)C(=O)N(C)CC(=O)N[C@@H](Cc2c[nH]c3ccccc23)C(=O)N[C@@H](Cc2ccc(O)cc2)C(=O)N[C@@H](CC(C)C)C(=O)N[C@H](C(=O)NCC(N)=O)CSCC(=O)N[C@@H](Cc2ccccc2)C(=O)N(C)[C@@H](Cc2ccccc2)C(=O)N1C [Example 3534] (HELM PEPTIDE1{[O=C(C[*:3])[*:2]].F.[meF].[CCCC[C@@H](C(=O)[*:2])N(C)[*:1]].[Sar].D.V.[meF].F.[Sar].W.Y.L.C.G.[am]}$PEPTIDE1,PEPTIDE1,1:R3-14:R3$$$V2.0) | 4.78 to 72.9 nM | 6.76 to 30.3 nM | 
